{
  "source": "paper PMC12174528",
  "about": "(Asian Pacific Journal of Cancer Prevention : APJCP, 2025)",
  "key": {"[1]": {"test_system": "MCF-7 cancer cell line", "test": "Cell viability assay", "format": "cell-based", "settings": "Homo sapiens, MCF7, 24 h, read-out: IC50 (cytotoxicity, SRB assay)"}, "[2]": {"test_system": "MCF-7 cell migration", "test": "Cell migration", "format": "cell-based, human", "settings": "for migration area at 24 hours: MCF-7, treated with IC50, 24 hours, negative control 44.02%"}, "[3]": {"test_system": "MCF-7 colony formation", "test": "Cell proliferation", "format": "cell-based, human", "settings": "MCF-7, treated with IC50, 5 days; negative control 100%"}, "[4]": {"test_system": "normal human diploid fibroblasts", "settings": "cited from earlier work"}},
  "data": [
    {"smiles": "C[C@H]1c2cccc(O)c2C(=O)C2=C(O)[C@]3(O)C(=O)C(C(N)=O)=C(O)[C@@H](N(C)C)[C@@H]3[C@@H](O)[C@@H]21", "note": "[DOX, doxycycline]", "values": [
      {"measurement": "IC50", "setting": "[1]", "value": 343, "unit": "µg/mL"},
      {"measurement": "migration area at 24 hours", "setting": "[2]", "value": 6.8, "unit": "%"},
      {"measurement": "migration area at 48 hours", "setting": "[2]; MCF-7, treated with IC50, 48 hours, negative control 53.99%", "value": -16.50, "unit": "%"},
      {"measurement": "colony formation relative to the negative control", "setting": "[3]", "value": 35.56, "unit": "%"}
    ]},
    {"smiles": "C[C@@H]1O[C@@H](O[C@@H]2[C@@H](O)[C@H](OCCc3ccc(O)c(O)c3)O[C@H](CO)[C@H]2OC(=O)/C=C/c2ccc(O)c(O)c2)[C@H](O)[C@H](O)[C@H]1O", "note": "[ACT, Acteoside]", "values": [
      {"measurement": "IC50", "setting": "[1]", "value": 135, "unit": "µg/mL"},
      {"measurement": "migration area at 24 hours", "setting": "[2]", "value": 14.38, "unit": "%"},
      {"measurement": "colony formation relative to the negative control", "setting": "[3]", "value": 39.7, "unit": "%"},
      {"measurement": "toxic effects on normal human diploid fibroblasts", "setting": "[4]", "value": "no toxic effects"}
    ]}
  ]
}
